From patent US20230086702A1, “SUBSTITUTED 2-AMINO-PYRAZOLYL-[1,2,4]TRIAZOLO[1,5A]PYRIDINE DERIVATIVES AND USE THEREOF” (The Johns Hopkins University, priority 2019, published 2023)

How the values were obtained:
DLK = biological target: T1, DLK (Homo sapiens, UniProt Q12852); assay: DLK biochemical assay (TR-FRET, MKK7 phosphorylation)
T1 construct: 10 nM DLK, catalytic domain, Carna Biosiences; purchased Carna Biosciences ('Carna Biosiences' [sic])
T1 sequence (Q12852 125-366 limits assumed): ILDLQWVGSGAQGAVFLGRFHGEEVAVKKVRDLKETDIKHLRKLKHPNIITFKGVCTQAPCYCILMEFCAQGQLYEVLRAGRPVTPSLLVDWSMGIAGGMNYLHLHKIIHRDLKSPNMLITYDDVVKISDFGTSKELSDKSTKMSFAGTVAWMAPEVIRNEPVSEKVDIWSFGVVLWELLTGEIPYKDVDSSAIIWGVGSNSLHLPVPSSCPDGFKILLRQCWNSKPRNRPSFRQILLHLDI
Procedure, shortened: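 DLK catalytic domain (10 nM) phosphorylates His-MKK7 (15 nM) at 60 μM ATP for 90 min at RT in pH 7.5 Hepes buffer (final concentrations). Phospho-T275/S277 is detected by TR-FRET (Eu anti-phospho donor, XL665 anti-His acceptor) after 16 h at 37° C (1536 format) or 4° C (384 format).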

LZK = biological target: T2, LZK (Homo sapiens, UniProt O43283); assay: LZK biochemical assay (TR-FRET, MKK7 phosphorylation)
T2 construct: 10 nM LZK, catalytic domain, Carna Biosiences in assay buffer; purchased Carna Biosciences ('Carna Biosiences' [sic])
T2 sequence (O43283 168-409 limits assumed): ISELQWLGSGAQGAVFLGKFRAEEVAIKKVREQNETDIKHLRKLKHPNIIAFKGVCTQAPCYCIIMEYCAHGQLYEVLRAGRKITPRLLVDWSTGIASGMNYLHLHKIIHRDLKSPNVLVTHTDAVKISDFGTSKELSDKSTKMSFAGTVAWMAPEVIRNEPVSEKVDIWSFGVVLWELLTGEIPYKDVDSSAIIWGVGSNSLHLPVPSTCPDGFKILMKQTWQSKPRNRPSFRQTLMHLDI
Procedure, shortened: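 LZK catalytic domain (10 nM) phosphorylates His-MKK7 (15 nM) with 15 µM ATP, all final, for 90 min at RT in HEPES buffer pH 7.5 with MgCl2. Phospho-T275/S277 detected by TR-FRET (Eu anti-phospho donor, XL665 anti-His acceptor) after 16 h at 32 °C in EDTA stop buffer. Inhibition lowers the 665/Eu ratio.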

IC50 (DLK) [nM] | IC50 (LZK) [nM] | Compound
53 | 150 | N#CCC(n1cc(-c2cc(-c3cnn(Cc4ccccc4)c3)cc3nc(N)nn23)cn1)C(F)(F)F (stereo not drawn) [II-123]
7.1 | 73 | Nc1nc2cc(-c3cnn(Cc4ccccc4)c3)cc(-c3cnn(CC4CC4(F)F)c3)n2n1 (stereo not drawn) [II-124]
17 | 160 | Nc1nc2cc(-c3cnn(Cc4ccccc4)c3)cc(-c3cnn(C4CCOC4)c3)n2n1 (stereo not drawn) [II-125]
60 | 220 | Nc1nc2cc(-c3cnn(Cc4ccccc4)c3)cc(-c3cnn(C4CCOCC4)c3)n2n1 [II-126, 7-(1-Benzyl-1H-pyrazol-4-yl)-5-[1-(tetrahydro-2H-pyran-4-yl)-1H-pyrazol-4-yl][1,2,4]triazolo[1,5-a]pyridin-2-amine]
8.4 | 99 | CC[C@@H](c1ccccc1)n1cc(-c2cc(-c3cnn(CC(F)(F)F)c3)n3nc(N)nc3c2)cn1 [II-127, 7-{1-[(1S)-1-Phenylpropyl]-1H-pyrazol-4-yl}-5-[1-(2,2,2-trifluoroethyl)-1H-pyrazol-4-yl][1,2,4]triazolo[1,5-a]pyridin-2-amine]
15 | 160 | CC[C@@H](c1ccc(F)cc1)n1cc(-c2cc(-c3cnn(CC(F)(F)F)c3)n3nc(N)nc3c2)cn1 [II-128]
69 | 170 | CCC(c1ccc(C(F)(F)F)cc1)n1cc(-c2cc(-c3cnn(CC(F)(F)F)c3)n3nc(N)nc3c2)cn1 (stereo not drawn) [II-129]
71 | 120 | CCC(c1ccc(C(F)(F)F)cc1)n1cc(-c2cc(-c3cnn(C4CCCC4)c3)n3nc(N)nc3c2)cn1 (stereo not drawn) [II-132]
19 | 70 | Nc1nc2cc(-c3cnn(Cc4ccnc(OC(F)(F)F)c4)c3)cc(-c3cnn(CC(F)(F)F)c3)n2n1 [II-135, 5-[1-(2,2,2-Trifluoroethyl)-1H-pyrazol-4-yl]-7-(1-{[2-(trifluoromethoxy)pyridin-4-yl]methyl}-1H-pyrazol-4-yl)[1,2,4]triazolo[1,5-a]pyridin-2-amine]
3.4 | 48 | COc1cc(C(C(C)C)n2cc(-c3cc(-c4cnn(CC(F)(F)F)c4)n4nc(N)nc4c3)cn2)ccn1 (stereo not drawn) [II-136]
1.7 | 29 | COc1cc([C@H](C(C)C)n2cc(-c3cc(-c4cnn(CC(F)(F)F)c4)n4nc(N)nc4c3)cn2)ccn1 [II-138]
11 | 27 | CC(C)C(c1ccc(C(F)(F)F)nc1)n1cc(-c2cc(-c3cnn(CC(F)(F)F)c3)n3nc(N)nc3c2)cn1 (stereo not drawn) [II-139]
3 | 13 | CC(C)[C@@H](c1ccc(C(F)(F)F)nc1)n1cc(-c2cc(-c3cnn(CC(F)(F)F)c3)n3nc(N)nc3c2)cn1 [II-140]
8.4 | 12 | CC(C)C(c1ccc(C(F)(F)F)nc1)n1cc(-c2cc(-c3cnn(CC4CC4(F)F)c3)n3nc(N)nc3c2)cn1 (stereo not drawn) [II-142]
2.5 | 15 | CC(C)C(c1ccc(C(F)(F)F)nc1)n1cc(-c2cc(-c3cnn(C4CCCC4)c3)n3nc(N)nc3c2)cn1 (stereo not drawn) [II-143]
3.3 | 9.9 | CC(C)[C@@H](c1ccc(C(F)(F)F)nc1)n1cc(-c2cc(-c3cnn(C4CCCC4)c3)n3nc(N)nc3c2)cn1 [II-145]
3.6 | 200 | Nc1nc2cc(-c3cnn(C(c4ccccc4)C4CCOCC4)c3)cc(-c3cnn(CC(F)(F)F)c3)n2n1 (stereo not drawn) [II-146]
2.9 | 4.7 | Nc1nc2cc(-c3cnn(C(c4ccc(C(F)(F)F)nc4)C4CCOCC4)c3)cc(-c3cnn(CC(F)(F)F)c3)n2n1 (stereo not drawn) [II-149]
1.4 | 16 | Nc1nc2cc(-c3cnn(C(c4ccccc4)C4CCNCC4)c3)cc(-c3cnn(CC(F)(F)F)c3)n2n1 (stereo not drawn) [II-152]
1.4 | 3.5 | Nc1nc2c(-c3ccc(=O)n(C(F)F)c3)cc(-c3cnn(C(c4ccc(C(F)(F)F)nc4)C4CCOCC4)c3)cn2n1 (stereo not drawn) [II-153]

IC50 (DLK) [nM] | IC50 (LZK) [nM] | Compound
1.1 | 3.3 | Nc1nc2c(-c3ccc(=O)n(CC(F)F)c3)cc(-c3cnn(C(c4ccc(C(F)(F)F)nc4)C4CCOCC4)c3)cn2n1 (stereo not drawn) [II-156]
2.4 | 6.2 | CC[C@@H](c1ccc(C(F)(F)F)nc1)n1cc(-c2cc(-c3ccc(=O)n(CC(F)(F)F)c3)c3nc(N)nn3c2)cn1 [II-159, 5-[2-Amino-6-(1-{(1S)-1-[6-(trifluoromethyl)pyridin-3-yl]propyl}-1H-pyrazol-4-yl)[1,2,4]triazolo[1,5-a]pyridin-8-yl]-1-(2,2,2-trifluoroethyl)pyridin-2(1H)-one]
1.5 | 5.9 | Nc1nc2c(-c3ccc(=O)n(CC(F)(F)F)c3)cc(-c3cnn(C(c4ccc(C(F)(F)F)nc4)C4CCOCC4)c3)cn2n1 (stereo not drawn) [II-160]
0.8 | 2 | Nc1nc2c(-c3ccc(=O)n(CC(F)(F)F)c3)cc(-c3cnn([C@H](c4ccc(C(F)(F)F)nc4)C4CCOCC4)c3)cn2n1 [II-162]
4.9 | 25 | CCC(c1ccc(OC(F)(F)F)nc1)n1cc(-c2cc(-c3ccc(=O)n(CC(F)(F)F)c3)c3nc(N)nn3c2)cn1 (stereo not drawn) [II-163]
4 | 27 | Nc1nc2c(-c3cn(CC(F)(F)F)c(=O)cn3)cc(-c3cnn(C(c4ccc(C(F)(F)F)nc4)C4CCOCC4)c3)cn2n1 (stereo not drawn) [II-166]
20 | 60 | CCC(c1ccc(C(F)(F)F)nc1)n1cc(-c2cc(-c3ccn(C)c(=O)c3)c3nc(N)nn3c2)cn1 (stereo not drawn) [II-169]
2.2 | 11 | Nc1nc2c(-c3ccn(CC(F)F)c(=O)c3)cc(-c3cnn(C(c4ccc(C(F)(F)F)nc4)C4CCOCC4)c3)cn2n1 (stereo not drawn) [II-172]
2.7 | 13 | Nc1nc2c(-c3ccn(CC(F)(F)F)c(=O)c3)cc(-c3cnn(C(c4ccc(C(F)(F)F)nc4)C4CCOCC4)c3)cn2n1 (stereo not drawn) [II-175]
15 | 74 | CC[C@@H](c1ccccc1)n1cc(-c2cc(-c3ccc(=O)[nH]c3)n3nc(N)nc3c2)cn1 [II-178, 5-(2-Amino-7-{1-[(1S)-1-phenylpropyl]-1H-pyrazol-4-yl}[1,2,4]triazolo[1,5-a]pyridin-5-yl)pyridin-2(1H)-one]
12 | 8 | CCC(c1ccc(C(F)(F)F)nc1)n1cc(-c2cc(-c3ccc(=O)n(C(F)F)c3)n3nc(N)nc3c2)cn1 (stereo not drawn) [II-179]
4 | 6.5 | Nc1nc2cc(-c3cnn(C(c4ccc(C(F)(F)F)nc4)C4CCOCC4)c3)cc(-c3ccc(=O)n(C(F)F)c3)n2n1 (stereo not drawn) [II-182]
1.3 | 2 | Nc1nc2cc(-c3cnn(C(c4ccc(C(F)(F)F)nc4)C4CCOCC4)c3)cc(-c3ccc(=O)n(CC(F)F)c3)n2n1 (stereo not drawn) [II-185]
7.1 | 10 | CCC(c1ccc(C(F)(F)F)nc1)n1cc(-c2cc(-c3ccc(=O)n(CC(F)(F)F)c3)n3nc(N)nc3c2)cn1 (stereo not drawn) [II-188]
2.9 | 5.4 | CC[C@@H](c1ccc(C(F)(F)F)nc1)n1cc(-c2cc(-c3ccc(=O)n(CC(F)(F)F)c3)n3nc(N)nc3c2)cn1 [II-190]
3.2 | 6.3 | Nc1nc2cc(-c3cnn(C(c4ccc(C(F)(F)F)nc4)C4CCOCC4)c3)cc(-c3ccc(=O)n(CC(F)(F)F)c3)n2n1 (stereo not drawn) [II-191]
240 | 690 | CCc1nnc(-c2cc(-c3cnn(Cc4ccccc4)c3)cn3nc(N)nc23)s1 [II-197, 6-(1-Benzyl-1H-pyrazol-4-yl)-8-(5-ethyl-1,3,4-thiadiazol-2-yl)[1,2,4]triazolo[1,5-a]pyridin-2-amine]
150 | 260 | CC(C)c1nnc(-c2cc(-c3cnn(Cc4ccccc4)c3)cn3nc(N)nc23)s1 [II-198, 6-(1-Benzyl-1H-pyrazol-4-yl)-8-[5-(propan-2-yl)-1,3,4-thiadiazol-2-yl][1,2,4]triazolo[1,5-a]pyridin-2-amine]
12 | 410 | C[C@@H](CO)c1nnc(-c2cc(-c3cnn(Cc4cccc5cn[nH]c45)c3)cn3nc(N)nc23)s1 [II-199, (2S)-2-(5-{2-Amino-6-[1-(1H-indazol-7-ylmethyl)-1H-pyrazol-4-yl][1,2,4]triazolo[1,5-a]pyridin-8-yl}-1,3,4-thiadiazol-2-yl)propan-1-ol]
